Several values for one entry are separate records, joined by “and”; a condition that tells them apart may be missing. Equal entries are not always repeated. Inconclusive results and toxic doses are left out.
Test system: L1210 leukemia ip in BDF1 mice, survival T/C
Assay: NCI In Vivo Anticancer Drug Screen. Data for tumor model L1210 Leukemia (intraperitoneal) in B6D2F1 (BDF1) mice
Details: endpoint: mean survival time, higher = longer survival
Summary of the method: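 Tumor was transplanted into mice, which were then dosed with test compound or vehicle alone. Survival was recorded for each group, and the treated figure was expressed relative to the control figure.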

[1] = dose: 50.0 mg/kg/injection, schedule: Q01DX001 (ip), vehicle: saline
[2] = dose: 100.0 mg/kg/injection, schedule: Q01DX001 (ip), vehicle: Klucel (hydroxypropylcellulose) (HPC)
[3] = dose: 100.0 mg/kg/injection, schedule: Q01DX001 (ip), vehicle: saline
[4] = dose: 100.0 mg/kg/injection, schedule: Q04DX003 (ip), vehicle: Klucel (hydroxypropylcellulose) (HPC)
[5] = dose: 200.0 mg/kg/injection, schedule: Q01DX001 (ip), vehicle: saline
[6] = dose: 200.0 mg/kg/injection, schedule: Q04DX003 (ip), vehicle: Klucel (hydroxypropylcellulose) (HPC)
[7] = dose: 400.0 mg/kg/injection, schedule: Q01DX001 (ip), vehicle: saline
[8] = dose: 400.0 mg/kg/injection, schedule: Q04DX003 (ip), vehicle: Klucel (hydroxypropylcellulose) (HPC)
[9] = dose: 25.0 mg/kg/injection, schedule: Q04DX002 (ip), vehicle: saline
[10] = dose: 50.0 mg/kg/injection, schedule: Q04DX002 (ip), vehicle: saline
[11] = dose: 50.0 mg/kg/injection, schedule: Q01DX009 (ip), vehicle: saline with Tween-80
[12] = dose: 100.0 mg/kg/injection, schedule: Q01DX009 (ip), vehicle: saline with Tween-80
[13] = dose: 200.0 mg/kg/injection, schedule: Q01DX009 (ip), vehicle: saline with Tween-80
[14] = dose: 100.0 mg/kg/injection, schedule: Q01DX001 (ip), vehicle: carboxymethylcellulose (CMC)
[15] = dose: 400.0 mg/kg/injection, schedule: Q01DX009 (ip), vehicle: saline with Tween-80
[16] = dose: 100.0 mg/kg/injection, schedule: Q04DX003 (ip), vehicle: saline with Tween-80
[17] = dose: 100.0 mg/kg/injection, schedule: Q01DX009 (ip), vehicle: Klucel (hydroxypropylcellulose) (HPC)
[18] = dose: 200.0 mg/kg/injection, schedule: Q01DX009 (ip), vehicle: Klucel (hydroxypropylcellulose) (HPC)
[19] = dose: 400.0 mg/kg/injection, schedule: Q01DX009 (ip), vehicle: Klucel (hydroxypropylcellulose) (HPC)

## O=NN(CCCl)C(=O)Nc1ccc(CCO)cc1
dose: 0.25 mg/kg/injection, schedule: Q01DX009 (ip), vehicle: saline
  T/C: 112 % of control
dose: 0.38 mg/kg/injection, schedule: Q01DX009 (ip), vehicle: saline
  T/C: 114 % of control
dose: 0.59 mg/kg/injection, schedule: Q01DX009 (ip), vehicle: saline
  T/C: 164 % of control
dose: 0.89 mg/kg/injection, schedule: Q01DX009 (ip), vehicle: saline
  T/C: 205 % of control
dose: 7.0 mg/kg/injection, schedule: Q01DX009 (ip), vehicle: saline
  T/C: 202 % of control
dose: 10.0 mg/kg/injection, schedule: Q01DX009 (ip), vehicle: saline
  T/C: 109 % of control
dose: 78.0 mg/kg/injection, schedule: Q01DX001 (ip), vehicle: other
  T/C: 185 % of control
dose: 119.0 mg/kg/injection, schedule: Q01DX001 (ip), vehicle: other
  T/C: 201 % of control
dose: 178.0 mg/kg/injection, schedule: Q01DX001 (ip), vehicle: carboxymethylcellulose (CMC)
  T/C: 242 % of control
dose: 178.0 mg/kg/injection, schedule: Q01DX001 (ip), vehicle: other
  T/C: 160 % of control and 235 % of control
dose: 266.0 mg/kg/injection, schedule: Q01DX001 (ip), vehicle: carboxymethylcellulose (CMC)
  T/C: 226 % of control
dose: 266.0 mg/kg/injection, schedule: Q01DX001 (ip), vehicle: other
  T/C: 193 % of control
dose: 400.0 mg/kg/injection, schedule: Q01DX001 (ip), vehicle: carboxymethylcellulose (CMC)
  T/C: 276 % of control
dose: 400.0 mg/kg/injection, schedule: Q01DX001 (ip), vehicle: other
  T/C: 182 % of control
dose: 600.0 mg/kg/injection, schedule: Q01DX001 (ip), vehicle: carboxymethylcellulose (CMC)
  T/C: 244 % of control

## NCc1cc2c3c(c1)CCCN3CCC2
dose: 12.5 mg/kg/injection, schedule: Q01DX001 (ip), vehicle: saline
  T/C: 111 % of control
dose: 12.5 mg/kg/injection, schedule: Q01DX009 (ip), vehicle: saline
  T/C: 97 % of control
dose: 25.0 mg/kg/injection, schedule: Q01DX001 (ip), vehicle: saline
  T/C: 107 % of control
dose: 25.0 mg/kg/injection, schedule: Q01DX009 (ip), vehicle: saline
  T/C: 97 % of control
[1]
  T/C: 105 % of control
dose: 50.0 mg/kg/injection, schedule: Q01DX009 (ip), vehicle: saline
  T/C: 104 % of control

## c1ccc2c(c1)[nH]c1cc3ccncc3cc12
[1]
  T/C: 100 % of control
[2]
  T/C: 94 % of control
[3]
  T/C: 94 % of control
[4]
  T/C: 93 % of control
dose: 200.0 mg/kg/injection, schedule: Q01DX001 (ip), vehicle: Klucel (hydroxypropylcellulose) (HPC)
  T/C: 96 % of control
[5]
  T/C: 98 % of control
[6]
  T/C: 93 % of control
dose: 400.0 mg/kg/injection, schedule: Q01DX001 (ip), vehicle: Klucel (hydroxypropylcellulose) (HPC)
  T/C: 92 % of control
[7]
  T/C: 96 % of control
[8]
  T/C: 91 % of control

## O=C(C1C(c2ccccc2)C1c1ccccc1)N(CCO)c1ccccc1 (centres undefined)
dose: 12.5 mg/kg/injection, schedule: Q04DX002 (ip), vehicle: saline
  T/C: 94 % of control
[9]
  T/C: 106 % of control
[10]
  T/C: 94 % of control

## COc1ccc(OC)c(C2N(Cc3ccc(N(C)C)cc3)CCCN2Cc2ccc(N(C)C)cc2)c1
[11]
  T/C: 93 % of control
[12]
  T/C: 93 % of control
[13]
  T/C: 90 % of control

## CCCCNC(=O)NC1CC(OC2CC(O)(C(C)=O)Cc3c(O)c4c(c(O)c32)C(=O)c2c(OC)cccc2C4=O)OC(C)C1O (centres undefined)
dose: 1.0 mg/kg/injection, schedule: Q04DX003 (ip), vehicle: water
  T/C: 104 % of control
dose: 2.0 mg/kg/injection, schedule: Q04DX003 (ip), vehicle: water
  T/C: 97 % of control
dose: 4.0 mg/kg/injection, schedule: Q04DX003 (ip), vehicle: water
  T/C: 98 % of control
dose: 8.0 mg/kg/injection, schedule: Q04DX003 (ip), vehicle: water
  T/C: 98 % of control
dose: 16.0 mg/kg/injection, schedule: Q04DX003 (ip), vehicle: water
  T/C: 94 % of control
dose: 32.0 mg/kg/injection, schedule: Q04DX003 (ip), vehicle: water
  T/C: 101 % of control

## CCN(CC)CC(=O)NC(CCN(C)C)c1cccc2ccccc12 (centres undefined)
[9]
  T/C: 103 % of control
[10]
  T/C: 103 % of control
dose: 100.0 mg/kg/injection, schedule: Q04DX002 (ip), vehicle: saline
  T/C: 98 % of control

## CCOc1cc(C=Nc2cc(Br)c(O)c(Br)c2)ccc1N(CCCl)CCCl
dose: 13.3 mg/kg/injection, schedule: Q01DX009 (ip), vehicle: carboxymethylcellulose (CMC)
  T/C: 108 % of control
dose: 20.0 mg/kg/injection, schedule: Q01DX009 (ip), vehicle: carboxymethylcellulose (CMC)
  T/C: 100 % of control
dose: 30.0 mg/kg/injection, schedule: Q01DX009 (ip), vehicle: carboxymethylcellulose (CMC)
  T/C: 97 % of control
dose: 44.0 mg/kg/injection, schedule: Q01DX001 (ip), vehicle: carboxymethylcellulose (CMC)
  T/C: 123 % of control
[14]
  T/C: 123 % of control
dose: 150.0 mg/kg/injection, schedule: Q01DX001 (ip), vehicle: carboxymethylcellulose (CMC)
  T/C: 122 % of control

## Cc1ccc(S(=O)(=O)NCCC(=O)O)cc1
[3]
  T/C: 93 % of control
[5]
  T/C: 98 % of control
[7]
  T/C: 98 % of control

## COc1ccc(CN(C)N=Nc2ccc(C#N)cc2)cc1
[12]
  T/C: 98 % of control
[13]
  T/C: 119 % of control
[15]
  T/C: 124 % of control

## CCN=C(c1ccc(NC(=O)c2ccc(C(=O)Nc3ccc(C(=NCC)N(CC)C(=O)NC(C)C)cc3)cc2)cc1)N(CC)C(=O)NC(C)C
dose: 6.0 mg/kg/injection, schedule: Q01DX015 (ip), vehicle: methylcellulose (MC)
  T/C: 89 % of control
dose: 25.0 mg/kg/injection, schedule: Q01DX015 (ip), vehicle: methylcellulose (MC)
  T/C: 102 % of control
dose: 37.0 mg/kg/injection, schedule: Q01DX015 (ip), vehicle: methylcellulose (MC)
  T/C: 96 % of control

## COc1ccc(C(c2ccc(Cl)cc2)N2CCNCC2)cc1 (centres undefined)
dose: 25.0 mg/kg/injection, schedule: Q01DX009 (ip), vehicle: saline with Tween-80
  T/C: 98 % of control
[11]
  T/C: 96 % of control
[12]
  T/C: 96 % of control
[16]
  T/C: 102 % of control

## c1ccc(COc2ccc3oc4ccccc4c3c2)cc1
[17]
  T/C: 96 % of control
[4]
  T/C: 94 % of control
[18]
  T/C: 94 % of control
[6]
  T/C: 96 % of control
[19]
  T/C: 96 % of control
[8]
  T/C: 91 % of control

## O=C(Nc1ccc(F)c([N+](=O)[O-])c1)Nc1cc(C(F)(F)F)ccc1Cl
[17]
  T/C: 101 % of control
[18]
  T/C: 90 % of control
[19]
  T/C: 89 % of control

## C=C(Cl)COC(=O)C(C)O (centres undefined)
dose: 25.0 mg/kg/injection, schedule: Q01DX001 (ip), vehicle: Klucel (hydroxypropylcellulose) (HPC)
  T/C: 98 % of control
dose: 50.0 mg/kg/injection, schedule: Q01DX001 (ip), vehicle: Klucel (hydroxypropylcellulose) (HPC)
  T/C: 96 % of control
[2]
  T/C: 100 % of control

## CCC1(CC)c2ccccc2C(CC)(CC)[N+]1(C)C
[14]
  T/C: 102 % of control
dose: 200.0 mg/kg/injection, schedule: Q01DX001 (ip), vehicle: carboxymethylcellulose (CMC)
  T/C: 98 % of control

## O=P1(c2ccccc2)CCc2[nH]c3ccc(Cl)cc3c2C1 (centres undefined)
[4]
  T/C: 100 % of control
[6]
  T/C: 107 % of control
[8]
  T/C: 112 % of control

## CCOc1c(N2CCOCC2)c(=O)c1=O
[12]
  T/C: 103 % of control
[16]
  T/C: 93 % of control
[13]
  T/C: 97 % of control
dose: 200.0 mg/kg/injection, schedule: Q04DX003 (ip), vehicle: saline with Tween-80
  T/C: 101 % of control
[15]
  T/C: 91 % of control
dose: 400.0 mg/kg/injection, schedule: Q04DX003 (ip), vehicle: saline with Tween-80
  T/C: 93 % of control

## FC(F)(F)c1ccc(N2CCCCC2)cc1
dose: 75.0 mg/kg/injection, schedule: Q04DX002 (ip), vehicle: saline
  T/C: 103 % of control
dose: 150.0 mg/kg/injection, schedule: Q04DX002 (ip), vehicle: saline
  T/C: 95 % of control
dose: 300.0 mg/kg/injection, schedule: Q04DX002 (ip), vehicle: saline
  T/C: 95 % of control

## O=C(O)C1CC2C3(Cl)C(Cl)=C(Cl)C(Cl)C2(CC1c1c2ccc(=O)c(O)c-2oc2c(O)c(O)ccc12)C3(Cl)Cl (centres undefined)
[4]
  T/C: 96 % of control
[6]
  T/C: 94 % of control
[8]
  T/C: 96 % of control

From PubChem BioAssay AID248 (DTP/NCI, 2004)
